# Tested on: Nilaparvata lugens Stál (brown rice planthopper)
# Assay: Insecticidal action test for Nilaparvata lugens Stál (brown rice planthopper) (immersion test)
# Type: in vivo
# Conditions: 144 h, 500 ppm active ingredient (wettable powder diluted with water), sprouting unhulled rice immersed, 10 2-age larvae, 25° C., after 6 days, no repetition, read-out: insect mortality
# Description: Insecticidal action test for Nilaparvata lugens Stál (Brown Rice Planthopper) (Immersion Test)
# A wettable powder prepared based on Formulation Example 2 was diluted with water so that the concentration of active ingredient became 500 ppm. In the diluted liquid was immersed sprouting unhulled rice. The immersed rice was placed in a plastic cup of 60 ml. Into the plastic cup were released 10 2-age larvae of Nilaparvata lugens Stál (brown rice planthopper). The cup was covered with a cap and placed in a thermostat of 25° C. After 6 days, the number of living insects was counted and the mortality of insect was calculated using the calculation formula of Mathematical Expression 1. This test was conducted with no repetition. Insect mortality(%)=[1−(number of living insects)/(number of tested insects)]×100 [Mathematical Expression 1]
# The compound Nos. of the compounds which gave an insect mortality of 90% or higher in the above test, are shown below.
row,Structure (SMILES),mortality at 500 ppm
1,"CC(C)ON=C(C#N)C(N)=NO [1-004, 3-amino-3-hydroxyimino-2-isopropoxyiminopropionitrile]",≥ 90%
2,"CCCON=C(N)C(C#N)=NOCCC [1-072, 3-Amino-2,3-Bis(Propoxyimino)Propionitrile]",≥ 90%
3,"CCCON=C(N)C(C#N)=NOC(C)C [1-073, 3-amino-2-isopropoxyimino-3-propoxyiminopropionitrile]",≥ 90%
4,"CC(C)ON=C(N)C(C#N)=NOC(C)C [1-096, 3-amino-2,3-bis(isopropoxyimino)propionitrile]",≥ 90%

# Reference: patent US9044013B2, “Glyoxime derivative and pest control agent” (KUMIAI CHEMICAL INDUSTRY CO., LTD., priority 2011, dated 2015)
